Experimental data: patent US4442102A, “1,5-Diphenylpyrazolin-3-one compounds, process and intermediates for preparation thereof and pharmaceutical compositions containing same” (Kali-Chemie Pharma GmbH, priority 1981, dated 1984)

tested on: passive cutaneous anaphylaxis; assay: Inhibition of passive cutaneous anaphylaxis (PCA test); type: in vivo, rats (Wistar); details: Rattus norvegicus, po; rats, p.o., 10 minutes before ovoalbumin challenge i.p.
Experimental: For example, the substances have an inhibiting action on the release of endogenic mediators from mast cells or basophilic leucocytes which leads to allergic reactions. The doses to be used vary, of course, depending on the nature of the substance used, on the mode of administration and on the condition to be treated. In general, however, satisfactory results are achieved in animal experiments with doses of from 0.05 to 75 mg. per kg of body weight.
Description of the test method to determine the inhibition of passive cutaneous anaphylaxis (PCA test, see Arch.int. pharmacology 252 (1981) 316-326).
To prepare the IgE-antiovoalbumin serum, used in the test, by the method of Mota (Immunology 7, (1964) 681) and J. Goose (Immunology 16 (1969) 749), male Wistar rats of 200-250 g. body weight were sensitised by subcutaneous injection of 1 mg. of ovoalbumin and 1 ml. of Bordatella pertussis suspension ("Vaxicoq" Merieux 3.10^10 organisms/ml.). After 14 days, the animals are exsanguinated and the blood is centrifuged. The antiserum thus obtained is stored at […].
Non-sensitised rats are injected, in each case, with 0.1 ml. of antiserum into the skin at four different places on their shaven backs. After 72 hours, a solution of the test compound or, for comparison, only the solvent, is administered orally, and 10 minutes later, 5 mg. of ovoalbumin and 5 mg. of blue dyestuff (Evans blue) in 0.9% strength NaCl solution are administered intraperitoneally. After 30 minutes, the animals are sacrificed and the diameters of the blue spots formed at the sites injected with antiserum are measured. The inhibiting effect of the test substance is determined from the size of the blue spots which appear.
The example numbers given for the compounds of the formula I relate to the preparation Examples below.

Compound	ED50
O=c1cc(-c2ccccc2)n(-c2ccccc2)n1CCCN1CCN(c2ccccn2)CC1 [Example 1, 1,5-Diphenyl-2-{3-[4-(2-pyridyl)-piperazin-1-yl]-propyl}-pyrazolin-3-one]	0.8 mg/kg
O=c1cc(-c2ccc(Cl)cc2)n(-c2ccccc2)n1CCCN1CCN(c2ccccn2)CC1 [Example 13]	8.5 mg/kg
O=c1cc(-c2ccccc2)n(-c2ccccc2)n1CCCN1CCN(c2ccc(F)cc2)CC1 [Example 22]	9.8 mg/kg
Cc1ccnc(N2CCN(CCCn3c(=O)cc(-c4ccccc4)n3-c3ccccc3)CC2)c1 [Example 27]	8.2 mg/kg
